# Source: ChEMBL document CHEMBL4417625, “Therapeutic compounds and methods” (2016)
# Active and inactive are the calls of the source. No cut-off for these calls is given here.
# Tests used:
# [1] = molecular target: T1, Regulator of G-protein signaling 17 (Homo sapiens) (UniProt Q9UGC6); test: Inhibition of cell membrane translocation of N-terminal GFP tagged full length RGS17 (unknown origin) expressed in HEK293T cells co-expressing Galpha-o at 100 uM incubated for 10 mins by confocal microscopy; type: cell-based
# T1 sequence (whole entry): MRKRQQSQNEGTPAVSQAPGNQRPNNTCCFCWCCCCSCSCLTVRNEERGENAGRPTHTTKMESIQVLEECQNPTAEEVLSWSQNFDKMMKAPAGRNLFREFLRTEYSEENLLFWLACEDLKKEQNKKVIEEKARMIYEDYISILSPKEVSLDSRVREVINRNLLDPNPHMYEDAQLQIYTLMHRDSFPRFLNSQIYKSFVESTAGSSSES
# [2] = molecular target: T1, Regulator of G-protein signaling 17 (Homo sapiens); test: Covalent binding affinity to N-terminal deficient RGS17 (unknown origin) assessed as covalent protein-compound adduct formation at 50 uM incubated for 1 hr by MALDI-TOF mass spectrometry
# [3] = molecular target: T1, Regulator of G-protein signaling 17 (Homo sapiens); test: Binding affinity to RGS17 (unknown origin) assessed as shifting of protein melting temperature by Sypro-orange dye based differential scanning fluorimetry
# [4] = molecular target: T1, Regulator of G-protein signaling 17 (Homo sapiens); test: Inhibition of cell membrane translocation of N-terminal GFP tagged and N-terminal deficient RGS17 (unknown origin) expressed in HEK293T cells co-expressing Galpha-o assessed as induction of delocalization of RGS17deltaN to cytoplasm at 10 uM incubated for 10 mins by confocal microscopy; type: cell-based
# [5] = molecular target: T1, Regulator of G-protein signaling 17 (Homo sapiens); test: Inhibition of RGS17 (unknown origin) assessed as reduction in RGS17 interaction with 6x-his-tagged biotinylated Galpha-o interaction at 100 uM followed by 3 times drug wash out with ASB buffer by Alpha-screen assay
# [6] = molecular target: T1, Regulator of G-protein signaling 17 (Homo sapiens); test: Inhibition of cell membrane translocation of N-terminal GFP tagged and N-terminal deficient RGS17 (unknown origin) expressed in HEK293T cells co-expressing Galpha-o assessed as induction of delocalization of RGS17deltaN to cytoplasm at 100 uM incubated for 10 mins by confocal microscopy; type: cell-based
# [7] = molecular target: T1, Regulator of G-protein signaling 17 (Homo sapiens); test: Inhibition of RGS17 (unknown origin) assessed as reduction in RGS17 interaction with 6x-his-tagged biotinylated Galpha-o interaction by Alpha-screen assay
# [8] = molecular target: T1, Regulator of G-protein signaling 17 (Homo sapiens); test: Inhibition of RGS17 (unknown origin) assessed as reduction in RGS17 interaction with 6x-his-tagged biotinylated Galpha-o interaction at 100 uM by Alpha-screen assay
# [9] = molecular target: Guanine nucleotide-binding protein G(o) subunit alpha (Homo sapiens) (UniProt P09471); test: Binding affinity to Galpha-o (unknown origin) assessed as shifting of protein melting temperature by Sypro-orange dye based differential scanning fluorimetry
# HEK-293T = test: Cytotoxicity in HEK293T cells co-expressing Galpha-o at 100 uM incubated for 10 mins; type: cell-based; conditions: human
# Guanine nucleotide-binding protein G(o) subunit alpha (Homo sapiens), sequence (P09471 2-354 limits assumed): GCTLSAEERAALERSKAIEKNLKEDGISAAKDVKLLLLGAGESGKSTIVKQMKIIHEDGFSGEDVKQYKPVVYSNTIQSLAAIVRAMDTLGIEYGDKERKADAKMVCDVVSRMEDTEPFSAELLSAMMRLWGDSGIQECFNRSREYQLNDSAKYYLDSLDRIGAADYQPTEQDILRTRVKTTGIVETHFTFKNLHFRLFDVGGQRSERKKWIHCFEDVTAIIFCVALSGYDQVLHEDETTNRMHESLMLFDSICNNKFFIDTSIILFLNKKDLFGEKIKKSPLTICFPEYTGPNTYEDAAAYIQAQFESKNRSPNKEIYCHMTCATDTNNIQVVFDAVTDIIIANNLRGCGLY
Structure (SMILES),inhibition [1],Activity [2],ΔTm [3] [°C],inhibition [4],inhibition [5],inhibition [6],inhibition [7],inhibition [8],Activity [3],Activity [9],Activity (HEK-293T)
C[n+]1cc2c3c(ccc2c2ccc4cc5c(cc4c21)OCO5)OCO3,inactive,inactive,2.1,Active,Active,Active,Dose-dependent effect,inactive,–,–,–
Cc1ccc(-n2sc(=O)n(Cc3ccc(F)cc3)c2=O)cc1,–,–,–,–,–,inactive,–,–,–,–,–
O=c1c(-c2cc(O)c(O)c(O)c2)coc2cc(O)c(O)c(O)c12,–,inactive,1,Active,Active,Active,Dose-dependent effect,inactive,–,–,–
CC(C)=CCC[C@]1(C)C=Cc2c(O)c3c(c(CC=C(C)C)c2O1)O[C@]12C(=C[C@@H]4C[C@H]1C(C)(C)O[C@@]2(C/C=C(/C)C(=O)O)C4=O)C3=O [GAMBOGIC ACID],–,inactive,–,–,Active,inactive,Dose-dependent effect,inactive,Active,Active,Toxic
CC1=C(O)C(=O)C=C2C1=CC=C1[C@@]2(C)CC[C@@]2(C)[C@@H]3C[C@](C)(C(=O)O)CC[C@]3(C)CC[C@]12C,–,inactive,1.4,Active,Active,Active,Dose-dependent effect,inactive,–,–,–
